Measurements as given in US20040185073A1, “Cosmetic compositions containing salts of malonic acid” (Unilever Home & Personal Care USA, Division of Conopco, Inc., priority 2003, published 2004).

Tested on: Porcine Skin
Test: Porcine Skin Test (thermo-mechanical analyzer deflection, 20 gram load)
Procedure: A feature of the present invention is that malonate salts are those which impart to the composition a positive Flexibility Value of at least 1, preferably at least 1.1 relative to water in the Porcine Skin Test. This test utilizes a thermo-mechanical analyzer with a 20 gram load to a one-cm diameter disc of Porcine Skin from which the immediate deflection is recorded in mm. Water serves as a control. Skin samples are measured before and 24 hours after one, two and three treatments. These treatments consist of 150 μl of each composition being applied to the skin for five minutes, then removed without rinsing. Thereafter, drying is performed at 21° C. and less than 100% relative humidity. Data transformation consists of determining the ratio of the deflection value after three applications of the test composition to the deflection value of the water standard. The ratio is defined as the Flexibility Value.
A variety of carboxylic acid salts were evaluated to determine their response in a Porcine Skin Test. A Perkin-Elmer Thermo-Mechanical Analyzer, Model TMS-1, was operated with a 20 gram load placed to a center of a one-cm diameter disc of Porcine Skin. Deflection of the skin in mm was immediately recorded. The sample size was six pieces of skin per treatment. Water was used as a control. […] Each was measured dry before and 24 hours after one, two and three treatments. […]

With “Dimethylethanolammonium Malonate [Malonate Salt]” the “Flexibility Value” (test material solution, 150 μl applied 5 minutes, ratio of deflection after three applications to deflection of water standard (water = 1.00)) was 1.36 and the “effect on skin flexibility (in words)” value (test material solutions, versus water) was “significantly more flexible”.
